Laboratory results reported in patent US11957762B2, “Immune tolerant and non-immune tolerant elastin-like recombinant peptides and methods of use” (University of Utah Research Foundation, priority 2015, dated 2024).
pIC50: −log10 of the molar value.

Tested on: regular 4T1-luc cells
Assay: Cytotoxicity, regular 4T1-luc cells
Assay type: cell-based, murine
Conditions: Mus musculus; regular 4T1-luc cells, 72 hours; read-out: IC50
Method: Cytotoxicity studies. The cytotoxicity was measured as previously described (Zhao, et al; Mol. Pharm, 2014; 11(8):2703-12). The incubation time was 72 hours. 4T1-lu mammosphere cells were generated as the previously described (Zhao, et al; Mol. Pharm, 2014; 11(8):2703-12).

CC(=O)O[C@H]1C(=O)[C@@]2(C)[C@H]([C@H](OC(=O)c3ccccc3)[C@]3(O)C[C@H](OC(=O)[C@H](O)[C@@H](NC(=O)c4ccccc4)c4ccccc4)C(C)=C1C3(C)C)[C@]1(OC(C)=O)CO[C@@H]1C[C@@H]2O [PTX, paclitaxel, reference compound]
pIC50: 8.20
